Measurements published in patent publication US20240190874A1, “SMALL MOLECULE DEGRADERS OF ANDROGEN RECEPTOR” (THE REGENTS OF THE UNIVERSITY OF MICHIGAN, priority 2021, published 2024).

How the values were obtained:
Format in all cases: cell-based
[1] = test system: VCaP cells; assay: Cellular potency (IC50) in VCaP cells; conditions: Homo sapiens, VCaP
Protocol: (§1) Biological Assays. LNCaP and VCaP cells used were purchased from American Type Culture Collection (ATCC). LNCaP were grown in RPMI 1640 (Invitrogen) and VCaP cells were grown in DMEM with Glutamax (Invitrogen). All of the cells were supplemented with 10% fetal bovine serum (Invitrogen) at 37° C. in a humidified 5% CO2 incubator.

[2] = target: T1, AR (Homo sapiens, UniProt P10275); assay: Degradation of AR in VCaP cells; conditions: VCaP cells; for Dmax: VCaP
T1 construct: Degradation of AR; Cellular potency; host or cells: VCaP cells
T1 sequence (P10275 1-920): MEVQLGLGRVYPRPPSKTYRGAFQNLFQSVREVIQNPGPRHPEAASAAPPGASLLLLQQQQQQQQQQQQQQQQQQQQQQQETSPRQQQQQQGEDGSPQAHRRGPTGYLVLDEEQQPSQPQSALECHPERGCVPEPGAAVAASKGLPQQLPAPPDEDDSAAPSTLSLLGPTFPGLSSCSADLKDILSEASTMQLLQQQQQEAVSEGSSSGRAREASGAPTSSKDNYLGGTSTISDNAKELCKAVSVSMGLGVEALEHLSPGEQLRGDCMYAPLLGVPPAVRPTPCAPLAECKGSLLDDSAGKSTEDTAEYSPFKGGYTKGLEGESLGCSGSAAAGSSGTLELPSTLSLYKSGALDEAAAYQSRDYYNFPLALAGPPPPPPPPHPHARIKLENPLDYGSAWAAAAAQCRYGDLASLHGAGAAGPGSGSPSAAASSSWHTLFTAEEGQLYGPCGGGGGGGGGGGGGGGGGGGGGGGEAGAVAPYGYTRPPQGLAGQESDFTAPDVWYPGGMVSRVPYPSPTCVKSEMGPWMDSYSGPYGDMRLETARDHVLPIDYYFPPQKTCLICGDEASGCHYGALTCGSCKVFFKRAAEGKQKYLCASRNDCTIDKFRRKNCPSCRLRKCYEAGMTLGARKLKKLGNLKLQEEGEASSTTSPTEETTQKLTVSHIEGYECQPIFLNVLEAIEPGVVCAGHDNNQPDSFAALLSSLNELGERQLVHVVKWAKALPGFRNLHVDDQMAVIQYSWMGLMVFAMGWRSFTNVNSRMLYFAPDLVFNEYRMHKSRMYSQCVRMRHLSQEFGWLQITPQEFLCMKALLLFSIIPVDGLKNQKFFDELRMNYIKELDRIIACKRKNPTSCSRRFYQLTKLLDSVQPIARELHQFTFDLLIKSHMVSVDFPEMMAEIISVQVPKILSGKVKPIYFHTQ
Protocol: as §1

[3] = test system: LNCaP cells; assay: Cellular potency (IC50) in LNCaP cells; conditions: Homo sapiens, LNCaP
Protocol: as §1

Compound | IC50 [1] | DC50 [2] | Dmax [2] | IC50 [3]
C[C@H]1CC2(CCN(c3ccc(CN4CCC(CN5Cc6cc7c(cc6C5)C(=O)N(C5CCC(=O)NC5=O)C7=O)CC4)cc3)CC2)CN1c1ccc(C#N)c(Cl)c1 (some centres unmarked) [compound 20] | < 100 nM | < 100 nM | 70 to 90% | < 100 nM
C[C@H]1CC2(CCN(c3ccc(N4CCN(CC5CN(c6ccc7c(c6)C(=O)N(C6CCC(=O)NC6=O)C7=O)C5)CC4)cn3)CC2)CN1c1ccc(C#N)c(Cl)c1 (some centres unmarked) [compound 31] | < 10 nM | < 1 nM | > 90% | < 10 nM
C[C@H]1CC2(CCN(c3ccc(S(=O)(=O)C4CCN(CC5CN(c6ccc7c(c6)C(=O)N(C6CCC(=O)NC6=O)C7=O)C5)CC4)cc3)CC2)CN1c1ccc(C#N)c(Cl)c1 (some centres unmarked) [compound 164] | < 10 nM | < 1 nM | – | < 100 nM
C[C@H]1CC2(CCN(c3ccc(C4CCN(C5CN(c6ccc7c(c6)C(=O)N(C6CCC(=O)NC6=O)C7=O)C5)CC4)cc3)CC2)CN1c1ccc(C#N)c(Cl)c1 (some centres unmarked) [compound 22] | < 100 nM | < 100 nM | 70 to 90% | < 100 nM
C[C@H]1CC2(CCN(c3ccc(CN4CCC(N5CCN(c6cc7c(cc6F)C(=O)N(C6CCC(=O)NC6=O)C7=O)CC5)CC4)nn3)CC2)CN1c1ccc(C#N)c(Cl)c1 (some centres unmarked) [compound 203] | < 10 nM | < 1 nM | – | < 10 nM
C[C@H]1CC2(CCN(c3ccc(N4CCC(NC5CN(c6ccc7c(c6)C(=O)N(C6CCC(=O)NC6=O)C7=O)C5)CC4)cc3)CC2)CN1c1ccc(C#N)c(Cl)c1 (some centres unmarked) [compound 120] | < 10 nM | < 1 nM | > 90% | < 10 nM
C[C@H]1CC2(CCN(c3cnc(N4CCN(CC5CN(c6ccc7c(c6)C(=O)N(C6CCC(=O)NC6=O)C7=O)C5)CC4)nc3)CC2)CN1c1ccc(C#N)c(Cl)c1 (some centres unmarked) [compound 82] | < 10 nM | < 1 nM | > 90% | < 10 nM
C[C@H]1CC2(CCN(c3ccc(CC4CCN(C5CN(c6ccc7c(c6)C(=O)N(C6CCC(=O)NC6=O)C7=O)C5)CC4)cn3)CC2)CN1c1ccc(C#N)c(Cl)c1 (some centres unmarked) [compound 196] | < 100 nM | < 1 nM | – | < 10 nM
C[C@H]1CC2(CCN(c3ccc(CN4CCN(C5CCN(c6cc7c(cc6F)C(=O)N(C6CCC(=O)NC6=O)C7=O)CC5)CC4)cn3)CC2)CN1c1ccc(C#N)c(Cl)c1 (some centres unmarked) [compound 165] | < 10 nM | < 10 nM | – | < 10 nM
C=C1CCC(N2C(=O)c3ccc(N4CCC(CN5CCN(c6ccc(N7CCC8(CC7)C[C@H](C)N(c7ccc(C#N)c(Cl)c7)C8)c(F)c6)CC5)CC4)cc3C2=O)C(=O)N1 (some centres unmarked) [compound 38] | < 10 nM | – | > 90% | < 10 nM
